Laboratory results published in patent US7671009B2, “Dermopharmaceutically and cosmetically active oligopeptides” (DSM IP Assets B.V., priority 2001, dated 2010).
*: point of attachment. Palmitoyl = CCCCCCCCCCCCCCCC(=O)*

System: Collagen Synthesis Type I+III in Fibroblast Cell Cultures (ATCC CCL110)
Assay: Stimulation of collagen synthesis type I+III in fibroblast cell cultures, Sirius Red microassay
Type: cell-based
Conditions: 24 hours incubation, control without active = 100%
Protocol: The collagen I and III content in fibroblasts is measured with the Sirius Red microassay. The quantitative determination of collagen is carried out after 24 hours of incubation with the corresponding oligopeptide derivatives. The extracellularly accumulated collagen is determined. Vitamin C and TGF-beta-1 are used as positive controls.
ATCC CCL110 fibroblasts are incubated in culture medium at a density of approx. 125,000 cells/well in 6-well cell culture plates for 2 days (37° C./5% CO2). Afterwards, the medium is discarded and washed twice with PBS, whereupon 1 ml of test medium with corresponding test substances is added. After incubation with test substance under culture conditions (37° C./5% CO2) for further 24 hours, the extracellular collagen is measured with the Sirius Red assay.
After the incubation period, the total volume of test medium (1 ml) is transferred into a flat-bottom 24-well plate and dried overnight at 55° C. The samples are fixed with 1 ml/well of Bouin's fluid for 1 hour at room temperature (RT). The fixing solution is discarded and the plates are washed 2-3 times with water. After drying of the plates, 1 ml of Sirius Red dye reagent is added.
The samples are shaken for 1 hour at RT on a microplate agitator at moderate intensity. Afterwards, the Sirius Red dye reagent is discarded and the plates are washed with 0.01N HCl. The tinted material is dissolved in 0.3 ml of 0.1N NaOH solution and shaken on a microplate agitator for 1 hour at RT.
200 μl of solution is transferred into a flat-bottom 96-well plate and the optical density is measured at 540 nm against 0.1N NaOH solution as the blank.
Culture medium: MEM+10% FCS+100 IU/ml penicillin+0.1 mg/ml streptomycin+1 mM non essential amino acids+1 mM Na-pyruvate+2 mM L-glutamine.
Test medium: DMEM without phenol red (AMIMED)+100 IU/ml penicillin+0.1 mg/ml streptomycin+80 μg/ml beta(β)-aminopropionitrile.
Vitamin C 100 mM (SIGMA A4034) is diluted to 50 μg/ml in the test medium.
Transforming growth factor TGFβ1 1 μg/ml (SIGMA T1654) is diluted to 0.1 ng/ml in the test medium.
The oligopeptide derivatives of the present invention are prepared in a regular concentration of 10 mM and diluted to 50 μM in the test medium.
Sirius Red F3BA dye reagent as the stock solution 1 mg/ml in saturated aqueous picric acid solution. Bouin's fluid: 15 ml of saturated aqueous picric acid solution+5 ml of formaldehyde+1 ml of acetic acid.

Compound	collagen type I + III after 24 hours, Extracellular (test substance 50 μM)	further results
O=C1O[C@H]([C@@H](O)CO)C(O)=C1O [Vitamin C, reference compound]	–	collagen type I + III after 24 hours, Extracellular (Vitamin C positive control, diluted to 50 μg/ml in test medium): 128%
H-Dab-Ser-OH × 2 TFA	131%	–
H-Lys-Thr-Thr-Dab-Ser-OH × 3 AcOH	137%	–
H-Lys-Thr-allo-Thr-Lys-Ser-OH × 3 AcOH	134%	–
H-Lys-allo-Thr-allo-Thr-Lys-Ser-OH × 3 AcOH	139%	–
Lipoyl-Lys (Lipoyl)-Thr-Thr-Lys (Lipoyl)-Ser-OH	162%	–
Palm-Lys-Thr-Ser-Lys-Ser-OH (Palmitoyl-KTSKS-OH; SMILES CCCCCCCCCCCCCCCC(=O)N[C@@H](CCCCN)C(=O)N[C@H](C(=O)N[C@@H](CO)C(=O)N[C@@H](CCCCN)C(=O)N[C@@H](CO)C(=O)O)[C@@H](C)O)	128%	–
TGFβ1: Transforming growth factor TGFβ1 (SIGMA T1654), positive control [reference compound]	–	collagen type I + III after 24 hours, Extracellular (0.1 ng/ml): 115%
